Literature values in patent US8846671B2, “Heterocyclic alkynyl benzene compounds and medical compositions and uses thereof” (Guangzhou Institute of Biomedicine and Health, Chinese …, priority 2010, dated 2014).
Entries after “also recorded” stand apart in the source; their conditions may differ. Counter-ions that a name gives are not always drawn.

Tests used:
[1] = system: cells carrying c-KIT D816V; details: cited from earlier work
[2] = system: BCR-ABL T315I mutant; details: cited from earlier work

Structure (SMILES)	effect on cells with c-KIT D816V point mutation [1]	effect on BCR-ABL T315I mutant [2]
Cc1cn(-c2cc(NC(=O)c3ccc(C)c(Nc4nccc(-c5cccnc5)n4)c3)cc(C(F)(F)F)c2)cn1 [AMN107, Nilotinib]	no effect	neither AMN107 nor BMS-354825 have effect
Cc1ccc(NC(=O)c2ccc(CN3CCN(C)CC3)cc2)cc1Nc1nccc(-c2cccnc2)n1 [STI571, Imatinib mesylate]	cannot inhibit proliferation; also recorded: no effect	
